Test results published in patent US7301020B2, “Macrolide analogs and methods for identifying same” (priority 2003, dated 2007).

Experiments:
Prodan-labeled G-actin = target: T1, Prodan-labeled G-actin (Oryctolagus cuniculus, UniProt P68135); experiment: Prodan-G-actin titration: binding stoichiometry and dissociation constant; design: species or system rabbit
T1 construct: F-actin is purified from rabbit skeletal muscle using a standard protocol; Prodan (Acrylodan) fluorophore, chemical label on the thiol of Cys374; from tissue; host or cells: rabbit skeletal muscle
Method: FIG. 2: (A), Stoichiometric binding of Prodan-labeled G-actin (1 μM) in G-buffer with KabC at final concentrations of in μm, a: 0.0; b: 0.1; c: 0.2; d: 0.3; e: 0.4; f: 0.5; g: 0.6; h: 0.7; i: 0.8; j: 0.9; k: 1.0; l: 1.1; m: 1.2; n: 1.5 (B), Plot of the integrated intensity in (A) against [KabC] yields a binding stoichiometry of 1:1.
Prodan-actin: Actin is labeled with the thiol probe, Acrylodan (Molecular Probes, Eugene, Oreg.) using a standard protocol (Marriott et al, 1988). Rabbit muscle G-actin is labeled with the thiol reactive, environmentally sensitive probe, Acrylodan, according to the inventor's earlier publication (Marriott et al, 1988). […]
Determination of the binding stoichiometry and dissociation constants for G-actin complexes with ABPs and macrolide drugs: The change in the quantum yield and/or emission energy of Prodan-actin is used to quantify the interaction of CapG and macrolides with G-actin. The stoichiometry of the CapG-G-actin and macrolide-G-actin complex is determined by titrating Prodan-G-actin at 1 μM with increasing amounts of CapG or the macrolide from 0.1^−10 μM. […] The equilibrium binding constant is determined by titrating a constant amount of Prodan labeled G-actin at 0.05˜0.1 μM in G- or F-buffer with incrementally increasing amounts of the macrolide or CapG over a range of 10 nM to 10 μM. […]

Prodan-G-actin = Prodan-G-actin (Oryctolagus cuniculus, UniProt P68135); experiment: Competition-binding assay with GS1 and CapG on Prodan-G-actin; design: F-actin is purified from rabbit skeletal muscle using a standard protocol; from tissue; host or cells: actin from rabbit skeletal muscle; CapG and GS1 expressed in E. coli M15; species or system rabbit
Method: FIG. 4: (A) CapG: (a), Prodan-G-actin (100 nM), (b), Prodan-G-actin-CapG; (c), same as (b) in the presence of 0.2 μM KabC; (B); GS1: (a), Prodan-G-actin 100 nM; (b), Prodan-G-actin-GS1; (c), same as (b) in the presence of 0.2 μM KabC.
Characterization of actin binding proteins: The actin-binding properties of the ABPs used in this study are evaluated from changes in the fluorescence emission spectrum of Prodan-actin and actin polymerization assays as described by Marriott et al (1988).
Trisoxazolemacrolides specifically compete with GS1 for the (+)-end binding site on actin. Gelsolin, a monomeric 80 kD cytoskeleton protein composed of six domains interacts with actin filaments in a complex, Ca^2+-dependent manner (Janmey et al, 1985; Burtnick et al, 1997). Gelsolin exerts two major effects once bound to an actin filament: first it severs the filament and second it remains tightly bound to the severed (+)-end and serves to block, or cap, further growth. […] Structural analyses of G-actin complexes with GS1 (McLaughlin et al, 1993) and KabC show these unrelated molecules bind to G-actin through common contact sites that include a patch of hydrophobic residues on the surface between sub-domains 1 and 3 and within the cleft that forms between the interface of sub-domains 1 and 3 (McLaughlin et al, 1993;). GS1 binding to Prodan-G-actin shifts the average energy of the fluorescence emission to the red and is accompanied by a decrease in the quantum yield (FIG. 4A) but not to the extent seen in the KabC-G-actin complex (FIG. 2).
Trisoxazolemacrolides specifically compete with CapG for the (+)-end binding site on actin. CapG, a Ca^2+-dependent, (+)-end actin filament capping protein, is found at high levels in macrophage cells where it regulates membrane ruffling and cell protrusions associated with phagocytosis and motility (Botelho et. al., 2000). […] The Ca^2+-dependent binding of CapG to Prodan-G-actin is accompanied by a dramatic blue-shift in the emission spectrum and an increase in quantum yield (FIG. 4B, curve b). The difference in fluorescence emission spectra between free and CapG-bound Prodan-G-actin is used to quantify the parameters for this binding reaction. The G-actin-CapG complex exists as a 1:1 complex and has a dissociation constant of 100 nM (data not shown). […] This conclusion is consistent with a comparison of high-resolution structures of G-actin with GS1 and KabC and a preliminary analysis of a 2.8 Angstrom structure of a CapG mutant (Vorobiev et al, PDB database, 2002). […] However the emission properties of the CapG-Prodan-G-actin complex are unaffected by the binding of LatA, DNAse and thymosin β4 (Tβ4), which is consistent with some structural data showing that these sequestering molecules bind closer to the ATP pocket and DNAse binding loop (Kabsch et al, 1990).

In the case of Kabiramide C [KabC], the “decrease of quantum yield of Prodan-G-actin on binding” value (Prodan-labeled G-actin) is reported as ~3 fold, the “displacement of CapG from Prodan-G-actin” value (Prodan-G-actin) is reported as “displace CapG from Prodan-G-actin in a Ca^2+-independent manner” and the “stability of final G-actin-KabC complex” value (Prodan-G-actin; dilution and competition-binding studies) is reported as “extremely stable and does not dissociate at a concentration below the equilibrium constant”. For the same substance, the “displacement of GS1 from Prodan-G-actin” value (Prodan-G-actin; presence of EGTA) was “displaces GS1”.
